Data taken from BigSolDB 2.1.

Cc1cccc(C(=O)O)c1[N+](=O)[O-]
solubility (mole fraction)
Details | in 1,4-dioxane | in NMP | in acetone | in acetonitrile | in ethanol | in ethyl acetate | in isopropanol | in methanol | in n-propanol
283.15 K | – | 0.0128 | 0.0253 | 0.00464 | 0.0103 | 0.00907 | 0.00877 | 0.0097 | 0.00792
285.65 K | 0.0281 | 0.0141 | 0.0265 | 0.00501 | 0.0111 | 0.00965 | 0.00946 | 0.0104 | 0.00845
288.15 K | 0.0303 | 0.0154 | 0.0277 | 0.00543 | 0.012 | 0.0102 | 0.0102 | 0.0112 | 0.00895
290.65 K | 0.0324 | 0.0168 | 0.0291 | 0.00588 | 0.013 | 0.0108 | 0.011 | 0.012 | 0.00955
293.15 K | 0.0346 | 0.0184 | 0.0305 | 0.00633 | 0.014 | 0.0115 | 0.0118 | 0.0129 | 0.0102
295.65 K | 0.0371 | 0.0201 | 0.0318 | 0.00684 | 0.0152 | 0.0121 | 0.0126 | 0.0138 | 0.0109
298.15 K | 0.0396 | 0.0218 | 0.0333 | 0.00737 | 0.0165 | 0.0128 | 0.0136 | 0.0149 | 0.0116
300.65 K | 0.0424 | 0.0234 | 0.0347 | 0.00788 | 0.0179 | 0.0136 | 0.0145 | 0.0159 | 0.0124
303.15 K | 0.0452 | 0.0254 | 0.0364 | 0.00846 | 0.0193 | 0.0144 | 0.0153 | 0.0171 | 0.0133
305.65 K | 0.0483 | 0.0273 | 0.0379 | 0.00915 | 0.0207 | 0.0151 | 0.0163 | 0.0183 | 0.0141
308.15 K | 0.0512 | 0.0296 | 0.0396 | 0.00984 | 0.0223 | 0.016 | 0.0175 | 0.0196 | 0.0151
310.65 K | 0.0543 | 0.032 | 0.0414 | 0.0106 | 0.0238 | 0.017 | 0.0186 | 0.0209 | 0.016
313.15 K | 0.0577 | 0.0345 | 0.0432 | 0.0113 | 0.0257 | 0.018 | 0.0198 | 0.0223 | 0.0169
315.65 K | 0.0609 | 0.0372 | 0.045 | 0.0121 | 0.0276 | 0.019 | 0.021 | 0.0237 | 0.0178
318.15 K | 0.0646 | 0.0405 | 0.0466 | 0.0128 | 0.0296 | 0.02 | 0.0224 | 0.0252 | 0.0188
